Measured values from US10874670B2, “Substituted fused heteroaromatic compounds as kinase inhibitors and the use thereof” (IMPACT THERAPEUTICS, INC., priority 2017, dated 2020).

Legend:
[1] = test system: human colon cancer cell SW620; assay: MTT assay, growth of SW620 cells, compounds combined with CPT-11; assay type: cell-based; details: combined with CPT-11 (205 nM medium), 5 days, MTT
Protocol: Inhibitory effects of N,N-dimethyl-3-(4-(1-(tetrahydro-2H-pyran-4-yl)-[1,2,4]triazolo[4,3-a]quinoxalin-8-yl)phenoxy)propan-1-amine and its Analogues Combined with CPT-11 on the Growth of Human Colon Cancer Cell SW620 were Determined by MTT Assay
(§1) SW620 cells were digested by trypsinase, centrifuged at 800 rpm for 5 minutes, the supernatant was discarded, resuspended with fresh medium (RPMI 1640 medium+10% FBS) and counted. The cells were seeded into 96-well cell culture plate with appropriate cell density and incubated overnight in a 37° C. 5% CO2 incubator. The stock solutions of the tested compound and the reference compound AZD0156 were serially diluted to 8 concentrations by DMSO at the ratios of 1:3 and 1:10, respectively, the first concentration was 10 μM or 1 μM, and the last concentration was negative control of DMSO (0 μM, the final concentration of DMSO was 1%). 5 μL of each concentration was added to 120 μL of medium (25 times diluted) and mixed by shaking. The overnight cells were taken and the culture medium was removed, 195 μL of fresh medium containing 205 nM CPT-11 was added to each well, and 5 μL of diluted medium containing the corresponding concentration of the tested sample was added respectively, and the culture plate was then placed in the 5% CO2 cell culture incubator at 37° C. for 5 days. After removing the original solution, 100 pt of fresh serum-free DMEM medium containing MTT (0.5 mg/mL) was added to each well, the culture was continued. After 4 hours, the original solution was removed, 100 μL of DMSO was added into each well, the 96-well plates were shaken away from light for 10 minutes and placed in a multi-function reader to read the absorbance at the wavelength of 552/630/690 nm. GraphPad Prism 6.0 was used to analyze the data. The inhibitory activity of compounds on cell proliferation was plotted based on cell viability and compound concentration. The IC50 value was fitted by a sigmoidal dose response curve equation Y=100/(1+10^(Log C−Log IC50)), where C was the concentration of compound.
Table 3 summarizes the inhibitory effects of compounds combined with CPT-11 on the growth of human colon cancer cell SW620 (IC50).

ATM enzyme (human) = ATM enzyme (human) (Homo sapiens, UniProt Q13315); assay: ATM kinase assay (HTRF, GST-cMyc-p53 substrate); assay type: biochemical; details: for inhibition at 1 µM / inhibition at 0.01 µM / inhibition at 0.1 µM: 0.5 h, read-out: Inh (%) of ATM kinase
Protocol: In Vitro Inhibition of ATM by N,N-dimethyl-3-(4-(1-(tetrahydro-2H-pyran-4-yl)-[1,2,4]triazolo[4,3-a]quinoxalin-8-yl)phenoxy)propan-1-amine and its Analogues was Determined by ATM Kinase Assay
The reaction was initiated by the addition of a Mg/ATP mixture and incubation for 30 minutes at room temperature, the reaction was quenched by the addition of a stop solution containing EDTA. Finally, the detection buffer containing the d2-labeled anti-GST monoclonal antibody and the europium-labeled anti-phospho p53 (Ser15) antibody was added. The plate was then read in time resolved fluorescence mode and the homogeneous time resolved fluorescence (HTRF) signal was determined according to the equation: HTRF=10000×(Em665nm/Em620nm). Each compound sample was repeated in duplicate. The experiment negative control was all components except of the ATM enzyme and the positive control contained all components. All reactions were quenched by adding EDTA.
ATM kinase inhibition was detected by using the method described above. The curve equation for calculating IC50 value is as follows:
[formula] • wherein, C is the concentration of compound and D is the slope factor.

[2] = test system: human breast cancer cell MDA-MB-468; assay: MTT assay, growth of MDA-MB-468 cells; assay type: cell-based; details: 7 days, MTT
Protocol: Inhibitory Effects of N,N-dimethyl-3-(4-(1-(tetrahydro-2H-pyran-4-yl)-[1,2,4]triazolo[4,3-a]quinoxalin-8-yl)phenoxy)propan-1-amine and its Analogues on the Growth of Human Breast Cancer Cell MDA-MB-468 were Determined by MTT Assay
as §1, with “MDA-MB-468 cells” for “SW620 cells”, “1:10, respectively:” for “1:10, respectively,”, “was 100” for “was 10”, “medium” for “medium containing 205 nM CPT-11”, “for 7 days (On the fourth day, the medium containing drugs was removed and fresh medium containing drugs was added for continuous cultivation).” for “for 5 days.”, “100 μL” for “100 pt”
Table 4 summarizes the inhibitory effects of compounds on the growth of human breast cancer cell MDA-MB-468 (IC50).

[3] = C 1 μm (final concentration of compound)
[4] = C 0.01 μm (final concentration of compound)
[5] = C 0.1 μm (final concentration of compound)
[6] = Homo sapiens, MDA-MB-468, 168 h

Chain of ATM enzyme (human) (Q13315 whole entry): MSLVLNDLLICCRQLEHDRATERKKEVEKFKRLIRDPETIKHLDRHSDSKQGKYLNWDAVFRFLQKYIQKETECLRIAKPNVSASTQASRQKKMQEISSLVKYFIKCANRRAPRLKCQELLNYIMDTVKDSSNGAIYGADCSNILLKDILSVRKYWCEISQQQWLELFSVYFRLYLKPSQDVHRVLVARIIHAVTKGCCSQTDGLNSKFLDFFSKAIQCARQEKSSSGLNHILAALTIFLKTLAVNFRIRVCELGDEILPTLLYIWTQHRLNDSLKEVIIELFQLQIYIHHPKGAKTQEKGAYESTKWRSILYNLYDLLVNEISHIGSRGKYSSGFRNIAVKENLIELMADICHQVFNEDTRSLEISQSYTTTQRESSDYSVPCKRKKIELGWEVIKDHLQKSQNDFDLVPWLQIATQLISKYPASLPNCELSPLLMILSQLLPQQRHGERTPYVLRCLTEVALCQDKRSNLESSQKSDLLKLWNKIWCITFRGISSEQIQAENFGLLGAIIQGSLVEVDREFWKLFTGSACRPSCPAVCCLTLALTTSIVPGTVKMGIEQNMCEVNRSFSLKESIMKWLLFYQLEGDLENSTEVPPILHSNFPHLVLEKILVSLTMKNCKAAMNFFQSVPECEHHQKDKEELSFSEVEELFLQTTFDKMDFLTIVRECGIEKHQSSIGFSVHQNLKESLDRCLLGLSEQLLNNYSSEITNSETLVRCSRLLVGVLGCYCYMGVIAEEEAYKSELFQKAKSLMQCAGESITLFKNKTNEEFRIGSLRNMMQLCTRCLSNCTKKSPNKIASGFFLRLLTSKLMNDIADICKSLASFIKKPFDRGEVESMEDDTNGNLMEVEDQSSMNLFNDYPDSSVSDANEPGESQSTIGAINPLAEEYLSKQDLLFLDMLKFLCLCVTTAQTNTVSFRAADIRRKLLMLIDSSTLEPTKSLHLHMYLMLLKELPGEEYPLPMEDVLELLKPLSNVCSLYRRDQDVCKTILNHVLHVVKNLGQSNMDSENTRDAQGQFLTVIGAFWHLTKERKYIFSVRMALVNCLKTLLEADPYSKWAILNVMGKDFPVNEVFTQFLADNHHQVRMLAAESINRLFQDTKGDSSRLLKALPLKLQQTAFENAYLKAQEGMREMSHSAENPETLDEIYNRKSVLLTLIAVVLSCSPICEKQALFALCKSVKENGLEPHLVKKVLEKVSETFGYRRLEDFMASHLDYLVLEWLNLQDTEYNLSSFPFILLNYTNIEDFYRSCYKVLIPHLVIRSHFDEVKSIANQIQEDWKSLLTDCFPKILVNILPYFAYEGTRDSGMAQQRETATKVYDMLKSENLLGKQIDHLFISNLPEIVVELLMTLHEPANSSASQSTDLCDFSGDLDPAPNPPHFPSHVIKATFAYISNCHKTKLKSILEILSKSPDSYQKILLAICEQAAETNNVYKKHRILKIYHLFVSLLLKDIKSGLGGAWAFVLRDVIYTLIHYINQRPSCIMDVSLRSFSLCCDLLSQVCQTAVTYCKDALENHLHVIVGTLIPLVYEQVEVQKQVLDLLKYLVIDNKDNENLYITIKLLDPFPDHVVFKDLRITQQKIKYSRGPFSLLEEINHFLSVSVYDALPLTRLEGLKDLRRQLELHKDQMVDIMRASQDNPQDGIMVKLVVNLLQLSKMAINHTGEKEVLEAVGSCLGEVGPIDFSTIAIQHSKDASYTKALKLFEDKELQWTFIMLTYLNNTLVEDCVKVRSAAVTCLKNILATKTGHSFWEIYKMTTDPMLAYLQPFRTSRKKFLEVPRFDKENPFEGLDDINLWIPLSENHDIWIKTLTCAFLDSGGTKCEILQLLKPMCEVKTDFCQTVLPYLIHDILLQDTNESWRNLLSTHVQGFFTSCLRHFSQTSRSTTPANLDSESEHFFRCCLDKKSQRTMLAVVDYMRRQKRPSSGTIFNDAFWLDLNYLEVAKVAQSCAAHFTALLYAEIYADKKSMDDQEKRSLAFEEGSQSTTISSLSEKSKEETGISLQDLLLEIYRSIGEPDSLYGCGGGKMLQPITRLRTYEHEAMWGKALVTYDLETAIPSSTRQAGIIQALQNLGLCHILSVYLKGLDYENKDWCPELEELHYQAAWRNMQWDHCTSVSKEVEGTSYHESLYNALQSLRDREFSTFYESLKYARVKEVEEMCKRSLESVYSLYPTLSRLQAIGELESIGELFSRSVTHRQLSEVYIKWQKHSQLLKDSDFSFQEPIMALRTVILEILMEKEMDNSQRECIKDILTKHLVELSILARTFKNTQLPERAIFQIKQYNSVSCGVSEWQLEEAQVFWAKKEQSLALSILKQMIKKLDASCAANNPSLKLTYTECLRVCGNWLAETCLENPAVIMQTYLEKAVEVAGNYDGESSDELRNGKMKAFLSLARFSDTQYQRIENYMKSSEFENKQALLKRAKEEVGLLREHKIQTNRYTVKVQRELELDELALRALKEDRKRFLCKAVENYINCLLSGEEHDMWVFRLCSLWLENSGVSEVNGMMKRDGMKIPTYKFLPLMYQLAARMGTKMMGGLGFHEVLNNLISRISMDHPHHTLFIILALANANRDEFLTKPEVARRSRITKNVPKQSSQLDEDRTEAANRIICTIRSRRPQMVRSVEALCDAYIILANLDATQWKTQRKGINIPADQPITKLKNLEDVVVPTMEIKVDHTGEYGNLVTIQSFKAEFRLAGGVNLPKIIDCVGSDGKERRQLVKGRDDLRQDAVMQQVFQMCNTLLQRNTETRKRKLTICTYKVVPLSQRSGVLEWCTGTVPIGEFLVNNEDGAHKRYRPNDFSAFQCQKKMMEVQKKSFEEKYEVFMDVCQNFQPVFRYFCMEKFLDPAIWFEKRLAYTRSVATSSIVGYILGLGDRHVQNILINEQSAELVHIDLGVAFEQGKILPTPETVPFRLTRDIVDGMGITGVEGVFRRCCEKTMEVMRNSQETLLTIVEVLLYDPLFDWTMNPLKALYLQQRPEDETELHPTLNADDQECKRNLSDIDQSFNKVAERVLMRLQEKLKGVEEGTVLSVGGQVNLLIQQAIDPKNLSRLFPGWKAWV

SMILES	IC50 ([1]; Homo sapiens, SW-620, 120 h) [µM]	inhibition at 1 µM (ATM enzyme (human); [3]) [%]	inhibition at 0.01 µM (ATM enzyme (human); [4]) [%]	inhibition at 0.1 µM (ATM enzyme (human); [5]) [%]	IC50 [2, 6] [µM]	further results
c1ccc(-c2ccc3ncc4nnc(C5CCOCC5)n4c3c2)cc1 [Example 39, 8-phenyl-1-(tetrahydro-2H-pyran-4-yl)-[1,2,4]triazolo[4,3-a]quinoxaline]	> 100	62				
C[N+](C)(C)CCCNc1ccc(-c2ccc3ncc4nnc(C5CCOCC5)n4c3c2)cc1 [Example 40, N,N,N-trimethyl-3-((4-(1-(tetrahydro-2H-pyran-4-yl)-[1,2,4]triazolo[4,3-a]quinoxalin-8-yl)phenyl)amino)propan-1-aminium]						IC50 [1]: > 100 µM; Inh (%) of ATM kinase (ATM enzyme (human); [4]): 33%; Inh (%) of ATM kinase (ATM enzyme (human); [5]): 81%; Inh (%) of ATM kinase (ATM enzyme (human); [3]): 99%
NC1CCN(c2ccc(-c3ccc4ncc5nnc(C6CCOCC6)n5c4c3)cc2)CC1 [Example 41, 1-(4-(1-(tetrahydro-2H-pyran-4-yl)-[1,2,4]triazolo[4,3-a]quinoxalin-8-yl)phenyl)piperidin-4-amine]	0.456	99	33	81		
CNC1CCN(c2ccc(-c3ccc4ncc5nnc(C6CCOCC6)n5c4c3)cc2)CC1 [Example 42, N-methyl-1-(4-(1-(tetrahydro-2H-pyran-4-yl)-[1,2,4]triazolo[4,3-a]quinoxalin-8-yl)phenyl)piperidin-4-amine]	0.211	99	68	90		
CCNC1CCN(c2ccc(-c3ccc4ncc5nnc(C6CCOCC6)n5c4c3)cc2)CC1 [Example 43, N-ethyl-1-(4-(1-(tetrahydro-2H-pyran-4-yl)-[1,2,4]triazolo[4,3-a]quinoxalin-8-yl)phenyl)piperidin-4-amine]	0.357	100	47	89		
C[C@@H]1CN(c2nnc3cnc4ccc(-c5ccc(N6CCC(N(C)C)CC6)c(F)c5)cc4n23)C[C@H](C)N1C [Example 59, 1-(2-fluoro-4-(1-((3S,5R)-3,4,5-trimethylpiperazin-1-yl)-[1,2,4]triazolo[4,3-a]quinoxalin-8-yl)phenyl)-N,N-dimethylpiperidin-4-amine]	0.0144				0.00661	
CN(C)C1CCN(c2ccc(-c3ccc4ncc5nnc(CN6CCOCC6)n5c4c3)cc2)CC1 [Example 65, N,N-dimethyl-1-(4-(1-(morpholinomethyl)-[1,2,4]triazolo[4,3-a]quinoxalin-8-yl)phenyl)piperidin-4-amine]	0.402	100	37	80		
CN(C)CCCOc1ccc(-c2cc3c(cn2)ncc2nnc(C4CCOCC4)n23)cc1 [Example 69, N,N-dimethyl-3-(4-(1-(tetrahydro-2H-pyran-4-yl)pyrido[3,4-e][1,2,4]triazolo[4,3-a]pyrazin-8-yl)phenoxy)propan-1-amine]						IC50 [2]: > 10 µM
CN(C)C1CCN(c2ccc(-c3ccc4ncc5nnc(CN6CCOCC6)n5c4n3)cc2)CC1 [Example 78, N,N-dimethyl-1-(4-(9-(morpholinomethyl)pyrido[3,2-e][1,2,4]triazolo[4,3-a]pyrazin-2-yl)phenyl)piperidin-4-amine]	0.664	98	67	94		
CN(C)CCCOc1ccc(-c2ccc3ncc4nnc(CN5CCOCC5)n4c3n2)cc1 [Example 79, N,N-dimethyl-3-(4-(9-(morpholinomethyl)pyrido[3,2-e][1,2,4]triazolo[4,3-a]pyrazin-2-yl)phenoxy)propan-1-amine]	1.98	94	21	62		
C[C@@H]1CN(c2nnc3cnc4ccc(-c5ccc(OCCCN(C)C)cc5)nc4n23)C[C@H](C)N1C [Example 80, N,N-dimethyl-3-(4-(9-((3S,5R)-3,4,5-trimethylpiperazin-1-yl)pyrido[3,2-e][1,2,4]triazolo[4,3-a]pyrazin-2-yl)phenoxy)propan-1-amine]	0.164				0.271	
C[C@@H]1CN(c2nnc3cnc4ccc(-c5ccc(OCCCN(C)C)c(F)c5)nc4n23)C[C@H](C)N1C [Example 81, 3-(2-fluoro-4-(9-((3S,5R)-3,4,5-trimethylpiperazin-1-yl)pyrido[3,2-e][1,2,4]triazolo[4,3-a]pyrazin-2-yl)phenoxy)-N,N-dimethylpropan-1-amine]	0.138				0.201	
C[C@@H]1CN(c2nnc3cnc4ccc(-c5ccc(OCCCN(C)C)c(Cl)c5)nc4n23)C[C@H](C)N1C [Example 82, 3-(2-chloro-4-(9-((3S,5R)-3,4,5-trimethylpiperazin-1-yl)pyrido[3,2-e][1,2,4]triazolo[4,3-a]pyrazin-2-yl)phenoxy)-N,N-dimethylpropan-1-amine]	0.189				0.201	
C[C@@H]1CN(c2nnc3cnc4ccc(-c5ccc(OCCCN(C)C)c(C(F)(F)F)c5)nc4n23)C[C@H](C)N1C [Example 83, N,N-dimethyl-3-(2-(trifluoromethyl)-4-(9-((3S,5R)-3,4,5-trimethylpiperazin-1-yl)pyrido[3,2-e][1,2,4]triazolo[4,3-a]pyrazin-2-yl)phenoxy)propan-1-amine]	0.148				0.0734	
C[C@@H]1CN(c2nnc3cnc4ccc(-c5ccc(N6CCC(N(C)C)CC6)cc5)nc4n23)C[C@H](C)N1C [Example 84, N,N-dimethyl-1-(4-(9-((3S,5R)-3,4,5-trimethylpiperazin-1-yl)pyrido[3,2-e][1,2,4]triazolo[4,3-a]pyrazin-2-yl)phenyl)piperidin-4-amine]	0.0705				0.246	
C[C@@H]1CN(c2nnc3cnc4ccc(-c5ccc(N6CCC(N(C)C)CC6)c(F)c5)nc4n23)C[C@H](C)N1C [Example 85, 1-(2-fluoro-4-(9-((3S,5R)-3,4,5-trimethylpiperazin-1-yl)pyrido[3,2-e][1,2,4]triazolo[4,3-a]pyrazin-2-yl)phenyl)-N,N-dimethylpiperidin-4-amine]	0.0413				0.0222	
